{
  "source": "paper PMC4117522",
  "about": "“Proteasome Inhibitors Alter Levels of Intracellular Peptides in HEK293T and SH-SY5Y Cells” (PLoS ONE, 2014)",
  "key": {"[1]": {"system": "SH-SY5Y cells", "assay": "Quantitative peptidomics (TMAB isotopic labels, LC-MS/MS) of inhibitor-treated SH-SY5Y cells", "assay_type": "cell-based, human", "procedure": "(§1) HEK293T and SH-SY5Y cells were grown to 80–90% confluence in DMEM and RPMI supplemented with 10% fetal bovine serum and penicillin/streptomycin. A single plate of cells (150 mm×25 mm) was used for each group. At the start of the experiment, media were removed from the plates and cells were washed with DPBS (138 mM NaCl, 8.06 mM Na2HPO4, 2.67 mM KCl, 1.47 mM KH2PO4, 0.9 mM CaCl2 and 0.49 mM MgCl2). This was followed by addition of serum-free media containing the proteasome or aminopeptidase inhibitors, or 0.05% DMSO as a control for the inhibitors that were soluble in DMSO. Each experiment consisted of two control groups and two or three replicate groups of cells treated with one of the inhibitors. The cells were incubated at 37°C for 20 minutes, following which media containing the inhibitor was removed, cells were washed with DPBS, detached from the plate by scraping into DPBS (without trypsin), and centrifuged at 800×g for 5 min. The wash buffer was supplemented with the appropriate inhibitor at the same concentration as used for the treatment, thereby ensuring that the changes induced in peptide levels were not reversed during harvesting of cells due to possible dissociation of the reversible inhibitors. The wash time (including centrifugation) was 15 minutes, for a total treatment time of 35 minutes. After centrifugation, the cell pellet was resuspended in 1 ml of 80°C water and incubated in an 80°C water bath for 20 minutes to inactivate proteases. The mixture was again centrifuged (13,000×g, 30 min, 4°C) and was stored at −80°C overnight. For peptide extraction, the samples were thawed and centrifuged again. The lysate was subsequently cooled on ice and acidified with HCl to a final concentration of 10 mM. After 15 min incubation on ice, the lysate was centrifuged at 13,000×g for 30 min at 4°C. To the supernatant, 250 µL of dibasic sodium phosphate (0.4 M, pH 9.5) was added and the mixture was stored at −80°C until labeling.\n(§2) The labeling protocol has been earlier described in detail. Each group within an experiment (control/treated) was labeled with a different isotopic tag. The TMAB-NHS labels were dissolved in DMSO to a concentration of 400 µg/µL and 15 mg of label was used per 150 mm plate of cells. […] At the beginning, the pH of the peptide extract was adjusted to 9.5 with 1 M NaOH. Labeling was performed over 8 rounds; 4.69 µL of the label was added to the extract every 20 min. The pH was measured between each round and if necessary, brought back to 9.5 for the first five rounds. For rounds 6–8, the pH was not adjusted after the addition of the TMAB-NHS reagent. After the final round of label addition, the pH was adjusted to 9.5 again and the extracts were incubated at room temperature for 90 min. Thereafter, 30 µL of 2.5 M glycine was added to quench any unreacted label. Following 40 min incubation at room temperature, the labeled extracts for a single experiment were pooled and filtered through Amicon Ultracel-10 K units. It is important to ensure that only N-terminal amines and lysine side-chain amines of peptides are TMAB-labeled and not tyrosines. To hydrolyze any labeled tyrosine, 30 µL of a 2 M solution of hydroxylamine hydrochloride (pH 3.7) was added over three rounds to the pooled and filtered sample. The pH was measured after the addition of hydroxylamine and adjusted to 9.0 with 1 M NaOH. The samples were desalted through PepClean C-18 spin columns (Thermo Scientific, Rockford, IL, USA) by following manufacturer’s instructions. Peptides were eluted using 160 µL of 0.5% TFA and 70% acetonitrile, frozen at −80°C and then lyophilized in a vacuum centrifuge and stored at −80°C until analysis by mass spectrometry.\n(§3) The LC-MS/MS experiments were performed on a Synapt G2 mass spectrometer coupled to a NanoAcquity capillary liquid chromatography system (Waters Co., Milford, MA, USA)."}, "[2]": {"system": "HEK293T cells", "assay": "Quantitative peptidomics (TMAB isotopic labels, LC-MS/MS) of inhibitor-treated HEK293T cells", "assay_type": "cell-based, human", "details": "HEK293T cells, 35 min; 2.5 µM MG132, 1 µM other inhibitors", "procedure": "as §1, §2, §3"}},
  "note": "Several values for one entry are separate records, joined by “and”; a condition that tells them apart may be missing. Identical values can stand only once.",
  "data": [
    {"molecule": "CC(=O)N[C@@H](CSC(=O)[C@]1([C@@H](O)C(C)C)NC(=O)[C@H](C)[C@@H]1O)C(=O)O", "note": "[Lactacystin]", "values": [
      {"measurement": "Relative Levels of peptide ADKVPKTAENFRAL (PPIA)", "setting": "[1]; 1 uM, 35', SH-SY5Y", "result": "< 0.20"},
      {"measurement": "Relative Levels of peptide Ac-AAPVDLELKKAFTEL (PFDN1)", "setting": "[1]; 1 uM, 35', SH-SY5Y", "result": "< 0.20"},
      {"measurement": "Relative Levels of peptide Ac-ASKRALVIL (PARK7)", "setting": "[1]; 1 uM, 35', SH-SY5Y", "result": "0.25 and < 0.20 and 0.21"},
      {"measurement": "Relative Levels of peptide Ac-ASKRALVILA (PARK7)", "setting": "[1]; 1 uM, 35', SH-SY5Y", "result": "0.52 and 0.32 and 0.42"},
      {"measurement": "Relative Levels of peptide Ac-MDTSRVQPIKL (RPS28)", "setting": "[1]; 1 uM, 35', SH-SY5Y", "result": "0.47 and 0.49 and 0.51"},
      {"measurement": "Relative Levels of peptide Ac-SSEEGKLFVGGLNF (RBM3)", "setting": "[1]; 1 uM, 35', SH-SY5Y", "result": "0.55 and 0.38 and 0.49"},
      {"measurement": "Relative Levels of peptide Ac-SYGRPPPDVEGMTSLKVDNL (SRSF2)", "setting": "[1]; 1 uM, 35', SH-SY5Y", "result": "0.63 and 0.36 and 0.45"},
      {"measurement": "Relative Levels of peptide GAIRDIDL (SRSF1)", "setting": "[1]; 1 uM, 35', SH-SY5Y", "result": "< 0.20"},
      {"measurement": "Relative Levels of peptide KHTGPGILSM (PPIA)", "setting": "[1]; 1 uM, 35', SH-SY5Y", "result": "0.26 and 0.24 and 0.25"}
    ]},
    {"molecule": "CC(C)C[C@H](NC(=O)[C@H](CCc1ccccc1)NC(=O)CN1CCOCC1)C(=O)N[C@@H](Cc1ccccc1)C(=O)N[C@@H](CC(C)C)C(=O)[C@@]1(C)CO1", "note": "[carfilzomib, reference compound]", "values": [
      {"measurement": "change in levels of intracellular peptides (peptidome)", "setting": "[2]", "result": "decreased the levels of many peptides but also elevated levels of a number of other peptides"},
      {"measurement": "change in levels of intracellular peptides (peptidome)", "setting": "[1]; SH-SY5Y cells, 35 min, 2.5 µM MG132, 1 µM other inhibitors", "result": "decreased the levels of many peptides but also elevated levels of a number of other peptides"}
    ]}
  ]
}
